This is an account of results in publication PMC12172083, “Identification of a novel and high affinity MIF inhibitor via structure-based pharmacophore modelling, molecular docking, molecular dynamics simulations, and biological evaluation” (Journal of Enzyme Inhibition and Medicinal Chemistry, 2025).

One assay concerns RAW 264.7 macrophages. Briefly: RT-qPCR of LPS-induced proinflammatory gene expression. The class given is cell-based, murine. As to conditions: mRNA, LPS 200 ng/mL 6 h, then 300 nM compound 30 min. From the text:
All chemicals were purchased from commercial suppliers without additional purification required. […] Hits 1–6 compounds were obtained from WuXi AppTec (Shanghai, China) with a purity exceeding 98%. The high-performance liquid chromatography (HPLC) spectra data for each compound were provided in the Supplementary Materials (Figures S2.1–2.6). RAW 264.7 murine macrophages were purchased from the American Type Culture Collection (ATCC, TIB-71). 10% foetal bovine serum (FBS), 100 units/mL of penicillin, and 100 µg/mL of streptomycin were added to the Dulbecco’s modified Eagle’s medium (DMEM). The FBS, penicillin, streptomycin, and DMEM were purchased from Gibco (Grand Island, NY, USA). The cells were cultured in the incubator that was humidified with 5% CO2 and 95% air at 37 °C. The human recombinant MIF was purchased from Abcam (Cambridge, MA, USA) and catalogue number was ab51096. This experiment was carried out in accordance with the relevant literature. […] RAW 264.7 macrophages were subjected to treatment with LPS at a concentration of 200 ng/mL for 6 h. […] The Trizol method was used to extract the total ribonucleic acid (RNA) from the cells. The RNA reverse transcription kit (Invitrogen) was used to synthesise complementary deoxyribonucleic acid (cDNA) according to the manufacturer’s instructions. The SYRB Green qPCR kit and the primers were used for amplification. Thereafter, to standardise the data, the expression levels of the target genes were normalised to GAPDH and calculated by using the 2^−ΔΔCT method. The expression data were presented in the format of fold-change for clear visualisation.
In general terms: Real-time PCR tracks product formation cycle by cycle.

The test system of assay [1] is MIF. Set-up: method as in PMID 34153665, PMID 33823428. As to conditions: cited from earlier work.
Assay [2] has as its target T1, MIF (Homo sapiens, UniProt P14174).
T1 construct: purchased Abcam ab51096
T1 sequence (P14174 2-115 limits assumed): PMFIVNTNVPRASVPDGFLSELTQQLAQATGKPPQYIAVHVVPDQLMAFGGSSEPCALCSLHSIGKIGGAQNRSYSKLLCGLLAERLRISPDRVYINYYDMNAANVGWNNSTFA
Briefly: MST assay, binding affinity to MIF. As to conditions: mean ± SD. The protocol: (§1) All chemicals were purchased from commercial suppliers without additional purification required. […] The high-performance liquid chromatography (HPLC) spectra data for each compound were provided in the Supplementary Materials (Figures S2.1–2.6). RAW 264.7 murine macrophages were purchased from the American Type Culture Collection (ATCC, TIB-71). 10% foetal bovine serum (FBS), 100 units/mL of penicillin, and 100 µg/mL of streptomycin were added to the Dulbecco’s modified Eagle’s medium (DMEM). The FBS, penicillin, streptomycin, and DMEM were purchased from Gibco (Grand Island, NY, USA). The cells were cultured in the incubator that was humidified with 5% CO2 and 95% air at 37 °C. The human recombinant MIF was purchased from Abcam (Cambridge, MA, USA) and catalogue number was ab51096.
The MST assay was used to measure the Kd value, aiming to assess the binding affinity between small molecules and targeted proteins in the field of drug discovery. […] The degree of labelling (DOL) of the MIF protein was calculated. The ideal DOL was in the range of 0.5–1. The Monolith™ RED-NHS second-generation protein labelling kit (NanoTemper Technologies) was used for the fluorescent labelling of MIF protein. We strictly followed the instructions of the kit for the experiment. The PBST (Phosphate-Buffered Saline with Tween) solution containing 0.05% Tween 20 was configured. The ligand was diluted into 16 concentration gradients using the semi-dilution method. The fluorescently labelled protein was added and thoroughly mixed, then incubated for 5 min in the dark. The solution was taken by capillary tube and assayed with the Monolith NT.115 instrument (NanoTemper Technologies). Subsequently, the difference was recorded in fluorescence intensity. The fluorescence intensity was plotted against the concentration of the hit compounds to generate a fluorescence dose curve, following which the Kd value was calculated.

Assay [3] concerns the target T1, MIF. Briefly: ITC assay, binding affinity to MIF. Conditions: 25 °C, pH 7.5, mean ± SD. The protocol:
as §1

In a further assay the target is T2, MIF-CD74 binding (Homo sapiens, UniProt P14174).
T2 sequence (P14174 1-115): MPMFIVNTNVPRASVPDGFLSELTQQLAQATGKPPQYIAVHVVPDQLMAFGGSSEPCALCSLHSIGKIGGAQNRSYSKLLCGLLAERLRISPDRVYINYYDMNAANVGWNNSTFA
The assay can be described thus: Pull down assay of GST-MIF with CD74. As to conditions: 40 nM biotin-Hit-1; 100 nM and 200 nM CD74; western blot. Here is the method: The pull down experiment was executed as described previously[36] and in line with defined standard principles. The pre-washed beads with purified GST-MIF were incubated for 2 h at 4 °C. The sample was centrifuged at 10 000 rpm and the purified protein was transferred to a new Eppendorf (EP) tube to remove non-specifically bound background proteins. The 40 nM of biotin-Hit-1 was added to the purified protein for incubation. […] The beads were washed five times with PBST. The proteins were denatured at 100 °C for 5 min. The protein bands were isolated and segregated via sodium dodecyl sulphate-polyacrylamide gel electrophoresis (SDS-PAGE) technique. The polyvinylidene fluoride (PVDF) membrane was pre-soaked in methanol. The protein bands were transferred onto the PVDF membrane under the condition of 200 mA. The membrane was blocked by incubating it with 3% bovine serum albumin (BSA) in PBS at 37 °C for 2 h. After every incubation period ended, the membrane was washed three times successively with PBST, with each washing step taking 10 min. Subsequently, the membrane was subjected to incubating with the primary antibody on a shaker overnight at 4 °C. […] Thereafter, the light signal was detected by a sophisticated detection system. Employing the Image J software, the intensity of the bands was quantified.

On to `Oc1ccc(-n2cc(-c3ccc4ccccc4n3)nn2)cc1` [Hit 3a, reference compound], for which, in the assay on RAW 264.7 macrophages, the “Reduction of TNF-α level compared with the LPS group” value turned out to be 2.2 fold.
In the case of `COc1ccc(-c2cc(C)nc(SCc3cccc(C(=O)O)c3)n2)cc1` [Hit Z-312, 3-({[4-(4-methoxyphenyl)-6-methyl-2-pyrimidinyl]thio}1methyl)benzoic acid], the “Release of pro-inflammatory factors induced by LPS (TNF-α, IL-6, IL-1β)” value in the assay on MIF [1] is reported as “suppress the release”.
Regarding `CCc1ccn2cc(-c3cc(-c4ccccc4)no3)nc2c1` [Hit-1], on MIF [2], binding was characterised by a dissociation constant (Kd) of 290 ± 10 nM. For the same compound, on MIF [3], the Kd (commonly the constant that tells how readily two partners part at equilibrium) came out at 320 ± 10 nM. In addition, the “Reduction of TNF-α level compared with the LPS group” value with RAW 264.7 macrophages is recorded as 3.7 fold. Also, in the assay with RAW 264.7 macrophages (compared with compound 3a), the “Inhibitory effect on the IL-1β” value is on record as “distinctly stronger inhibitory effect” and the “Inhibitory effect on the IL-6 level” value is reported as “markedly stronger inhibitory effect”. For the same compound, the “Effect on MIF interaction with CD74” value on MIF-CD74 binding is “potently suppressed”.
In the case of `Cc1ccn2cc(-c3cc(-c4ccccc4)no3)nc2c1` [Hit-2], the dissociation constant Kd on MIF [2] is 460 ± 30 nM.
Same read-out and setting: the same measure for `c1ccc(-c2cc(-c3cn4cccnc4n3)on2)cc1` [Hit-3]: 540 ± 20 nM.
On the same count and under the same terms, the same measure for `Cc1nn(-c2ccccc2)nc1-c1nnc(-c2ccc(Cl)cc2)o1` [Hit-4]: 750 ± 60 nM.
The same measure, in the same setting: the same measure for `Cc1nn(-c2ccccc2)nc1-c1nnc(-c2ccccc2)o1` [Hit-5]: 810 ± 40 nM; for `Cc1nn(-c2ccccc2)nc1-c1nnc(-c2ccc(C(F)(F)F)cc2)o1` [Hit-6]: 720 ± 50 nM.
With `COC(=O)CC1CC(c2ccc(O)cc2)=NO1` (centres unmarked) [ISO-1], the “Release of pro-inflammatory factors induced by LPS (TNF-α, IL-6, IL-1β)” value in the assay with MIF [1] was “suppress the release”.
